Results: PubChem BioAssay (NCI)
Several values for one entry are separate records, joined by “and”; a condition that tells them apart may be missing. Equal entries are not always repeated.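 Method: 48-hour compound exposure of cells in 96-well plates, five concentrations, linear interpolation of endpoints. GI50 is the concentration that inhibits growth by half. At the TGI there is no net growth.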

Assays:
Assay in all cases: NCI anticancer screen, dose series, 48 h
[1] = system: HCT-15 colon
[2] = system: M14 melanoma
[3] = system: SK-MEL-5 melanoma
[4] = system: SF-295 CNS
[5] = system: COLO 205 colon
[6] = system: SK-MEL-28 melanoma
[7] = system: SF-268 CNS
[8] = system: EKVX NSCLC
[9] = system: CCRF-CEM leukemia
[10] = system: HOP-92 NSCLC
[11] = system: MDA-MB-435
[12] = system: DU-145 prostate
[13] = system: SNB-75 CNS
[14] = system: SK-MEL-2 melanoma
[15] = system: HCC-2998 colon

Compound | TGI [1] | TGI [2] | TGI [3] | TGI [4] | TGI [5] | TGI [6] | TGI [7] | TGI [8] | TGI [9] | TGI [10] | TGI [11] | TGI [12] | TGI [13] | TGI [14] | TGI [15] | GI50 [7] | GI50 [13]
Nc1cccc(OCc2nc(N)nc(N)c2-c2ccc(Cl)cc2)c1 | > 100 µM | > 100 µM | > 100 µM | > 100 µM | 44.1 µM | > 100 µM | > 100 µM | > 100 µM | 29.2 µM | > 100 µM | > 100 µM | > 100 µM | > 100 µM | > 100 µM | – | – | –
CC(C)[Si]1(C(C)C)OCC2OC(n3ccc(=O)[nH]c3=O)C(O)(CO)C2O[Si](C(C)C)(C(C)C)O1 (centres undefined) | 36.2 µM | 34.8 µM | 28.4 µM | 28.5 µM | 31.7 µM | 36.7 µM | 27.8 µM | 27.4 µM | 30.7 µM | 22.6 µM | 31.6 µM | 32.4 µM | – | 31 µM | – | – | –
CC(=O)c1cn(-c2ccc(Cl)cc2)c(=O)c2c(N)n[nH]c12 | > 100 µM | – | > 100 µM | > 100 µM | > 100 µM | > 100 µM | > 100 µM | > 100 µM | > 100 µM | – | > 100 µM | > 100 µM | > 100 µM | > 100 µM | > 100 µM | – | –
COc1ccc(C)cc1NC(=S)N/N=C/c1ccc(SC)cc1 | > 100 µM | 73.9 µM | 51.9 µM | > 100 µM | > 100 µM | > 100 µM | > 100 µM | – | > 100 µM | > 100 µM | > 100 µM | > 100 µM | > 100 µM | > 100 µM | – | – | –
COC(=O)C1=C(O)C(C(=O)OC)[C@]2(O)[C@H](C(=O)OC)[C@H]1C[C@@H](c1ccc(OC)cc1)[C@H]2C(=O)OC (some centres undefined) | > 100 µM | 66.6 µM | 55.8 µM | > 100 µM | > 100 µM | > 100 µM | > 100 µM | > 100 µM | – | > 100 µM | 29 µM | – | 91.8 µM | 56.3 µM | 37.8 µM | – | –
CC(=O)c1cccc(NC2C(N)C(NC(=O)N(C)C)(C(C)O)C(C)(O)C2(O)COC(=O)c2c(C)cccc2O)c1 (centres undefined) | 1.01 µM | 0.3 µM | 0.0227 µM | 0.164 µM and 0.231 µM | – | 1.04 µM and 0.532 µM | – | 0.08 µM | 0.205 µM | – | 0.0157 µM | 0.0202 µM | – | 0.0186 µM | 0.00295 µM | < 0.001 µM | < 0.001 µM
COCN1C(=O)[C@@H]2CCCN2C(=O)c2cc([N+](=O)[O-])ccc21 | > 100 µM | > 100 µM | > 100 µM | > 100 µM | > 100 µM | > 100 µM | > 100 µM | > 100 µM | – | – | > 100 µM | > 100 µM | > 100 µM | > 100 µM | – | – | –
Cc1cn(C2CC(N=[N+]=[N-])C(CO[Si](C)(C)C(C)(C)C)O2)c(=O)[nH]c1=O (centres undefined) | 37.9 µM | 41.5 µM | 32.4 µM | 34.6 µM | 35.6 µM | – | 45.8 µM | 58.1 µM | 60.9 µM | – | 38.2 µM | 45.1 µM | 42.9 µM | 33.8 µM | 26.5 µM | – | –
